Experimental data published in PubChem BioAssay AID328 (DTP/NCI, 2004).
Several values for one entry are separate records, joined by “and”; a condition that tells them apart may be missing. Equal values may be shown once. Toxic doses and inconclusive results are not listed. The calls were made as follows: active = survival T/C of 150% or more; inactive = T/C below 125% in these data.

Tested on: BDF1 mice, P388 leukemia ip, median survival T/C
Assay: NCI In Vivo Anticancer Drug Screen. Data for tumor model P388 Leukemia (intraperitoneal) in B6D2F1 (BDF1) mice
Details: endpoint: median survival time, higher = longer survival
Summary of the method: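 Reported as T/C, where T is the survival measurement in dosed animals and C the same measurement in vehicle controls.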

[1] = dose: 25.0 mg/kg/injection, schedule: Q01DX009 (ip), vehicle: Klucel (hydroxypropylcellulose) (HPC)
[2] = dose: 100.0 mg/kg/injection, schedule: Q04DX003 (ip), vehicle: Klucel (hydroxypropylcellulose) (HPC)
[3] = dose: 200.0 mg/kg/injection, schedule: Q04DX003 (ip), vehicle: Klucel (hydroxypropylcellulose) (HPC)
[4] = dose: 50.0 mg/kg/injection, schedule: Q01DX009 (ip), vehicle: saline with Tween-80
[5] = dose: 100.0 mg/kg/injection, schedule: Q01DX009 (ip), vehicle: saline with Tween-80
[6] = dose: 400.0 mg/kg/injection, schedule: Q04DX003 (ip), vehicle: Klucel (hydroxypropylcellulose) (HPC)

Measured: T/C

O=NN(CCF)C(=O)NC12CC3CC(CC(C3)C1)C2
active: dose: 12.0 mg/kg/injection, schedule: Q01DX009 (ip), vehicle: Klucel (hydroxypropylcellulose) (HPC) 158 % of control | dose: 22.0 mg/kg/injection, schedule: Q04DX003 (ip), vehicle: Klucel (hydroxypropylcellulose) (HPC) 162 % of control and 180 % of control | [1] 250 % of control | dose: 33.0 mg/kg/injection, schedule: Q04DX003 (ip), vehicle: Klucel (hydroxypropylcellulose) (HPC) 240 % of control | dose: 50.0 mg/kg/injection, schedule: Q04DX003 (ip), vehicle: Klucel (hydroxypropylcellulose) (HPC) 245 % of control and 300 % of control
inactive: dose: 5.5 mg/kg/injection, schedule: Q04DX003 (ip), vehicle: Klucel (hydroxypropylcellulose) (HPC) 104 % of control | dose: 11.0 mg/kg/injection, schedule: Q04DX003 (ip), vehicle: Klucel (hydroxypropylcellulose) (HPC) 112 % of control

O=P(Oc1ccc(OP(=O)(N2CC2)N2CC2)cc1)(N1CC1)N1CC1
active: dose: 50.0 mg/kg/injection, schedule: Q04DX003 (ip), vehicle: saline 168 % of control | dose: 75.0 mg/kg/injection, schedule: Q04DX003 (ip), vehicle: saline 177 % of control | dose: 115.0 mg/kg/injection, schedule: Q04DX003 (ip), vehicle: saline with Tween-80 190 % of control | dose: 175.0 mg/kg/injection, schedule: Q04DX003 (ip), vehicle: saline with Tween-80 254 % of control | dose: 264.0 mg/kg/injection, schedule: Q04DX003 (ip), vehicle: saline with Tween-80 150 % of control | dose: 400.0 mg/kg/injection, schedule: Q04DX003 (ip), vehicle: saline with Tween-80 254 % of control

COc1ccc(CC2c3cc(OC)c(OC)cc3CCN2C(=O)OCc2ccccc2)cc1OC (stereo unspecified)
inactive: dose: 50.0 mg/kg/injection, schedule: Q01DX005 (ip), vehicle: saline with Tween-80 91 % of control | dose: 100.0 mg/kg/injection, schedule: Q01DX005 (ip), vehicle: saline with Tween-80 93 % of control | dose: 200.0 mg/kg/injection, schedule: Q01DX005 (ip), vehicle: saline with Tween-80 92 % of control

CC(C)Sc1nc(N)nc2nc[nH]c12
inactive: dose: 6.25 mg/kg/injection, schedule: Q01DX009 (ip), vehicle: Klucel (hydroxypropylcellulose) (HPC) 100 % of control | dose: 12.5 mg/kg/injection, schedule: Q01DX009 (ip), vehicle: Klucel (hydroxypropylcellulose) (HPC) 105 % of control | [1] 100 % of control | dose: 50.0 mg/kg/injection, schedule: Q01DX009 (ip), vehicle: Klucel (hydroxypropylcellulose) (HPC) 100 % of control | [2] 105 % of control | [3] 105 % of control

NC(=O)c1ncn[nH]1
inactive: [4] 95 % of control | dose: 50.0 mg/kg/injection, schedule: Q04DX003 (ip), vehicle: saline with Tween-80 104 % of control | [5] 87 % of control | dose: 100.0 mg/kg/injection, schedule: Q04DX003 (ip), vehicle: saline with Tween-80 100 % of control | dose: 200.0 mg/kg/injection, schedule: Q01DX009 (ip), vehicle: saline with Tween-80 104 % of control | dose: 200.0 mg/kg/injection, schedule: Q04DX003 (ip), vehicle: saline with Tween-80 100 % of control

C/C=C/C=C/C(=O)c1ccc(OC)cc1O
inactive: [4] 109 % of control | [5] 109 % of control

Cc1cc(Cl)ccc1NC(=O)c1ccccc1C(=O)O
inactive: [2] 91 % of control | [3] 91 % of control | [6] 87 % of control

CC1(C)CCc2c(ccc(C(=O)/C=C\c3ccccc3)c2O)O1
inactive: dose: 1.25 mg/kg/injection, schedule: Q01DX009 (ip), vehicle: Klucel (hydroxypropylcellulose) (HPC) 109 % of control | dose: 2.5 mg/kg/injection, schedule: Q01DX009 (ip), vehicle: Klucel (hydroxypropylcellulose) (HPC) 107 % of control | dose: 5.0 mg/kg/injection, schedule: Q01DX009 (ip), vehicle: Klucel (hydroxypropylcellulose) (HPC) 102 % of control | dose: 10.0 mg/kg/injection, schedule: Q01DX009 (ip), vehicle: Klucel (hydroxypropylcellulose) (HPC) 107 % of control | dose: 20.0 mg/kg/injection, schedule: Q01DX009 (ip), vehicle: Klucel (hydroxypropylcellulose) (HPC) 100 % of control | dose: 40.0 mg/kg/injection, schedule: Q01DX009 (ip), vehicle: Klucel (hydroxypropylcellulose) (HPC) 91 % of control

CC(=O)CC(C)=O.CC(=O)CC(C)=O.O=N[O-].O=N[O-].[Co]
inactive: dose: 25.0 mg/kg/injection, schedule: Q04DX002 (ip), vehicle: saline with Tween-80 106 % of control | dose: 50.0 mg/kg/injection, schedule: Q04DX002 (ip), vehicle: saline with Tween-80 109 % of control

COc1cc(C(=O)CCC(=O)O)cc(OC)c1OC
inactive: dose: 100.0 mg/kg/injection, schedule: Q01DX009 (ip), vehicle: Klucel (hydroxypropylcellulose) (HPC) 100 % of control | dose: 200.0 mg/kg/injection, schedule: Q01DX009 (ip), vehicle: Klucel (hydroxypropylcellulose) (HPC) 100 % of control | [3] 105 % of control | dose: 400.0 mg/kg/injection, schedule: Q01DX009 (ip), vehicle: Klucel (hydroxypropylcellulose) (HPC) 95 % of control | [6] 115 % of control
